Counter-ions that a name gives are not always drawn.
test system: RSV-GFP; experiment: microbe, parasite or virus in culture; format: cell-based, Respiratory syncytial virus; conditions: 10.0 µM, HEp-2, RSV-GFP MOI 0.5, single replicate
Method: The following morning, cells were washed twice with serum-free EMEM and treated with RSV-GFP (MOI 0.5) in a minimal volume of serum-free media for 90 min under frequent agitation. Unbound virus was then removed and replaced with fresh serum-containing EMEM. All drug additions were performed 2 h post-viral exposure, unless otherwise stated.
Automated quantification of infection rates from fluorescent images were performed in CellProfiler (v2.2.0)[86]. Major steps in the image analysis pipeline included: (1) background subtraction and smoothing, (2) segmentation of nuclei, (3) segmentation of GFP-fluorescent area, (4) object masking, and (5) measurement of nuclear number, size, and intensity. Infection rate was quantified from the ratio of nuclei within GFP-fluorescent area to the total number of nuclei (Fig. 1b). This method of analysis accounts for in vitro syncytium formation induced by RSV, whereby a single infected cell may arise from the fusion of multiple cells. Mean nuclear fluorescent intensity and size was quantified as a measure of cell viability.
The MicroSource […] Collection (Discovery Systems Inc.) consisting of 2400 compounds was screened using the previously outlined RSV-GFP infection assay protocol. Robot-assisted addition of drugs was performed within 1 h of RSV-GFP infection and infection rates were assayed 48 h p.i. Drugs were provided as 10 mM stocks in DMSO and serial diluted to a final concentration of 10 µM, resulting in a final DMSO concentration of 0.1% v/v. […] Hits were selected based on the criteria that: (a) the tested drug caused a >50% reduction in infection rate and (b) was not overtly cytotoxic (<10% change in mean nuclear intensity relative to DMSO control). Z-factors were calculated on a per-plate basis to monitor assay quality.

Compound	RSV-GFP inhibition (%)
CC1(C)C(=O)C=C[C@]2(C)[C@H]3CC[C@@]4(C)[C@H](c5ccoc5)OC(=O)[C@H]5O[C@]54[C@]3(C)C=C[C@@H]12 [7-Desacetoxy-6,7-dehydrogedunin]	69.38%
COc1cc2c(cc1OC)[C@@H]1C(=O)c3c(O)cc4c(c3O[C@@H]1CO2)C=CC(C)(C)O4 [Alpha-toxicarol]	63.58%
CC(=O)Oc1cc2c(c(C)c1OC(C)=O)CC=C1[C@@]2(C)CC[C@@]2(C)C3C[C@](C)(C(=O)O)CC[C@]3(C)CC[C@]12C (some centres unmarked) [Dihydrocelastryl diacetate]	89.96%
CCc1c2c(nc3ccc(OC(=O)N4CCC(N5CCCCC5)CC4)cc13)-c1cc3c(c(=O)n1C2)COC(=O)[C@]3(O)CC.Cl [Irinotecan hydrochloride]	55.56%
O=C1[O][Pt]2([NH][C@@H]3CCCC[C@H]3[NH]2)[O]C1=O [Oxaliplatin]	88.7%
CC[C@@H](C(=O)[C@@H](C)[C@@H](O)[C@H](C)[C@@H]1O[C@@H]([C@@H](CC)C(=O)O)CC[C@@H]1C)[C@H]1O[C@]2(C=C[C@@H](O)[C@]3(CC[C@@](C)([C@H]4CC[C@](O)(CC)[C@H](C)O4)O3)O2)[C@H](C)C[C@@H]1C [Salinomycin, sodium]	96.45%
CC(=O)OC1CCC23C(=O)OC45CCC(C6=CC(=O)OC6)C4(C)CCC2C5CCC3(O)C1 (centres unmarked) [Strophanthidinic acid lactone acetate]	82.33%
Antimycin A1	79.49%
Benzalkonium chloride	77.34%

same assay, conditions: HEp-2, RSV-GFP

Compound	RSV inhibition in the screen
CC(C)n1c(/C=C/C(O)CC(O)CC(=O)O)c(-c2ccc(F)cc2)c2ccccc21 (centres unmarked) [Fluvastatin]	inhibit RSV at low micromolar concentrations
O=C(O)C[C@H](O)C[C@H](O)/C=C/c1c(C2CC2)nc2ccccc2c1-c1ccc(F)cc1 [Pitavastatin calcium]	inhibit RSV at low micromolar concentrations

same assay, conditions: human respiratory syncytial virus, HEp-2, read-out: RSV-GFP inhibition (%)

Compound	inhibition at 10 µM
C#C[C@]1(OC(C)=O)CC[C@H]2[C@@H]3CCC4=CC(=NO)CC[C@@H]4[C@H]3CC[C@@]21CC (mixture of isomers) [Norgestimate]	55%
C#CC1(O)CC[C@H]2[C@@H]3CCC4=CC(=O)CC[C@@H]4[C@H]3CC[C@@]21CC (mixture of isomers) [Norgestrel]	64.1%
COc1ccc(-c2cc(=O)c3ccccc3o2)cc1 [4’-Methoxyflavone]	59.9%
O=c1cc(-c2ccc(O)cc2)oc2ccc(O)cc12 [6,4’-Dihydroxyflavone]	75.3%
CCCCC(CC)CNC(=N)NC(=N)NCCCCCCNC(=N)NC(=N)NCC(CC)CCCC (centres unmarked) [Alexidine hydrochloride]	66.8%
Nc1c2ccccc2nc2ccccc12 [Aminacrine]	58.3%
CC[C@@]1(O)C(=O)OCc2c1cc1n(c2=O)Cc2cc3ccccc3nc2-1 [Camptothecin]	55.7%
CCCCCCCCCCCCCCCC[N+](C)(C)C [Cetrimonium bromide]	71.2%
Cc1nc2ccccc2n1Cc1ccc(Cl)cc1 [Chlormidazole]	68.5%
C=C[C@@]1(C)CC(=O)[C@]2(O)[C@@]3(C)[C@@H](O)CCC(C)(C)[C@@H]3[C@H](O)[C@H](OC(C)=O)[C@@]2(C)O1 [Colforsin]	72.5%
C[C@@H]1C[C@@H]([C@H](O)CC2CC(=O)NC(=O)C2)C(=O)[C@@H](C)C1 [Cycloheximide]	75%
CC1=C2C[C@H]3[C@@H](CC=C4C[C@@H](O)CC[C@@]43C)[C@@H]2CC[C@]12O[C@@H]1C[C@H](C)CN[C@H]1[C@H]2C [Cyclopamine]	86%
Cc1cc(N)c2ccccc2[n+]1CCCCCCCCCC[n+]1c(C)cc(N)c2ccccc21 [Dequalinium chloride]	63.8%
C[C@]12CC[C@H](O)C[C@H]1CC[C@@H]1[C@@H]2C[C@@H](O)[C@]2(C)[C@@H](C3=CC(=O)OC3)CC[C@]12O [Digoxigenin]	85.1%
Cc1c(O)c(O)cc2c1CC=C1[C@@]2(C)CC[C@@]2(C)[C@@H]3C[C@](C)(C(=O)O)CC[C@]3(C)CC[C@]12C [Dihydrocelastrol]	82.6%
C[C@]12CCC(=O)C=C1[C@@H]1C[C@@H]1[C@H]1[C@@H]3[C@@H]4C[C@@H]4[C@@]4(CCC(=O)O4)[C@@]3(C)CC[C@@H]12 [Drospirenone]	68.3%
CC[C@H]1CN2CCc3cc(OC)c(OC)cc3[C@@H]2C[C@@H]1C[C@H]1NCCc2cc(OC)c(OC)cc21 [Emetine dihydrochloride]	100%
CC(C)n1c(/C=C/C(O)CC(O)CC(=O)O)c(-c2ccc(F)cc2)c2ccccc21 (centres unmarked) [Fluvastatin]	73.2%
CN(C)c1ccc(C(=C2C=CC(=[N+](C)C)C=C2)c2ccc(N(C)C)cc2)cc1 [Gentian violet]	86.3%
CC(=O)O[C@H]1CC[C@@]2(C)[C@H](CC[C@@H]3[C@@H]2CC[C@]2(C)[C@@H](C4=CC(=O)OC4)[C@@H](OC(C)=O)C[C@]32O)C1 [Gitoxigenin diacetate]	91.8%

Compound	inhibition at 10 µM
C[C@H]1O[C@@H](O[C@H]2[C@@H](O)C[C@H](O[C@H]3[C@@H](O)C[C@H](O[C@H]4CC[C@@]5(C)[C@H](CC[C@@H]6[C@@H]5CC[C@]5(C)[C@@H](C7=CC(=O)OC7)[C@@H](O)C[C@]65O)C4)O[C@@H]3C)O[C@@H]2C)C[C@H](O)[C@@H]1O [Gitoxin]	85.7%
Oc1c(Cl)cc(Cl)c(Cl)c1Cc1c(O)c(Cl)cc(Cl)c1Cl [Hexachlorophene]	83.2%
CC(=O)O[C@H]1C[C@H](O[C@H]2[C@@H](O)C[C@H](O[C@H]3[C@@H](O)C[C@H](O[C@H]4CC[C@@]5(C)[C@H](CC[C@@H]6[C@@H]5C[C@@H](O)[C@]5(C)[C@@H](C7=CC(=O)OC7)CC[C@]65O)C4)O[C@@H]3C)O[C@@H]2C)O[C@H](C)[C@H]1O[C@@H]1O[C@H](CO)[C@@H](O)[C@H](O)[C@H]1O [Lanatoside C]	100%
CN(C)c1ccc2nc3ccc(=[N+](C)C)cc-3sc2c1 [Methylene blue]	67.8%
CC[C@@]1([C@@H]2O[C@@H]([C@H]3O[C@@](O)(CO)[C@H](C)C[C@@H]3C)C[C@@H]2C)CC[C@H]([C@]2(C)CC[C@]3(C[C@H](O)[C@@H](C)[C@@H]([C@@H](C)[C@@H](OC)[C@H](C)C(=O)O)O3)O2)O1 [Monensin A]	93.9%
COc1c(C)c2c(c(O)c1C/C=C(\C)CCC(=O)OCCN1CCOCC1)C(=O)OC2 [Mycophenolate mofetil]	98.4%
COc1c(C)c2c(c(O)c1C/C=C(\C)CCC(=O)O)C(=O)OC2 [Mycophenolic acid]	98.8%
CCCCCCCCCc1ccc(OCCOCCOCCOCCOCCOCCOCCOCCOCCO)cc1 [Nonoxynol-9]	69.2%
C#C[C@]1(OC(C)=O)CC[C@H]2[C@@H]3CCC4=CC(=O)CC[C@@H]4[C@H]3CC[C@@]21C [Norethindrone acetate]	54.2%
C#C[C@]1(O)CC[C@H]2[C@@H]3CCC4=C(CCC(=O)C4)[C@H]3CC[C@@]21C [Norethynodrel]	75.4%
C[C@@H]1O[C@@H](O[C@H]2C[C@@H](O)[C@]3(CO)[C@H]4[C@H](O)C[C@]5(C)[C@@H](C6=CC(=O)OC6)CC[C@]5(O)[C@@H]4CC[C@]3(O)C2)[C@H](O)[C@H](O)[C@H]1O [Ouabain]	100%
N=C(N)c1ccc(OCCCCCOc2ccc(C(=N)N)cc2)cc1 [Pentamidine isethionate]	60.2%
CO[C@H]1[C@H](O)[C@H](O[C@H]2CC[C@@]3(C=O)[C@H](CC[C@@H]4[C@@H]3CC[C@]3(C)[C@@H](C5=CC(=O)OC5)CC[C@]43O)C2)O[C@@H](C)[C@@H]1O [Peruvoside]	98.2%
O=C(O)C[C@H](O)C[C@H](O)/C=C/c1c(C2CC2)nc2ccccc2c1-c1ccc(F)cc1 [Pitavastatin calcium]	63.4%
COC(=O)[C@]1(C)CC[C@]2(C)CC[C@]3(C)C4=CC=C5C(=CC(=O)C(O)=C5C)[C@]4(C)CC[C@@]3(C)[C@@H]2C1 [Pristimerin]	74.1%
CC(=O)[C@H]1CC[C@H]2[C@@H]3CCC4=CC(=O)CC[C@]4(C)[C@H]3CC[C@]12C [Progesterone]	50.5%
C[C@@H]1O[C@@H](O[C@@H]2C=C3CC[C@@H]4[C@H](CC[C@]5(C)[C@@H](c6ccc(=O)oc6)CC[C@]45O)[C@@]3(C)CC2)[C@H](O)[C@H](O)[C@H]1O [Proscillaridin]	81.6%
C[C@]12CC[C@H]3[C@@H](CC[C@]4(O)C[C@@H](O)CC[C@]34C=O)[C@@]1(O)CC[C@@H]2C1=CC(=O)OC1 [Strophanthidin]	90.4%
CCC(=O)O[C@H]1CC[C@H]2[C@@H]3CCC4=CC(=O)CC[C@]4(C)[C@H]3CC[C@]12C [Testosterone propionate]	84.7%
